{"source": "patent US6737383B1", "about": "“Herbicidal oxadiazolidines” (priority 1999, dated 2004)", "key": {"bedstraw": {"tested_on": "bedstraw", "assay": "Test B pre/postemergence bedstraw", "assay_type": "in vivo, Galium aparine", "outline": "(§1)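 Test chemicals in a non-phytotoxic solvent mixture with surfactant were sprayed preemergence onto planted seeds and postemergence onto plants 2 to 18 cm tall (1- to 4-leaf stage). After twelve to sixteen days in a greenhouse, injury was visually rated against untreated controls from 0 (no effect) to 10 (complete control).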"}, "blackgrass": {"tested_on": "blackgrass", "assay": "Test B pre/postemergence blackgrass", "assay_type": "in vivo, Alopecurus myosuroides", "outline": "as §1"}, "surinam grass": {"tested_on": "surinam grass", "assay": "Test B pre/postemergence surinam grass", "assay_type": "in vivo, Brachiaria decumbens", "outline": "as §1"}, "cocklebur": {"tested_on": "cocklebur", "assay": "Test B pre/postemergence cocklebur", "assay_type": "in vivo, Xanthium strumarium", "outline": "as §1"}, "corn": {"tested_on": "corn", "assay": "Test B pre/postemergence corn", "assay_type": "in vivo, Zea mays", "outline": "as §1"}, "crabgrass": {"tested_on": "crabgrass", "assay": "Test B pre/postemergence crabgrass", "assay_type": "in vivo, Digitaria sanguinalis", "outline": "as §1"}, "giant foxtail": {"tested_on": "giant foxtail", "assay": "Test B pre/postemergence giant foxtail", "assay_type": "in vivo, Setaria faberii", "outline": "as §1"}, "morningglory": {"tested_on": "morningglory", "assay": "Test B pre/postemergence morningglory", "assay_type": "in vivo, Ipomoea hederacea", "outline": "as §1"}, "pigweed": {"tested_on": "pigweed", "assay": "Test B pre/postemergence pigweed", "assay_type": "in vivo, Amaranthus retroflexus", "outline": "as §1"}, "rape": {"tested_on": "rape", "assay": "Test B pre/postemergence rape", "assay_type": "in vivo, Brassica napus", "outline": "as §1"}, "soybean": {"tested_on": "soybean", "assay": "Test B pre/postemergence soybean", "assay_type": "in vivo, Glycine max", "outline": "as §1"}, "sugar beet": {"tested_on": "sugar beet", "assay": "Test B pre/postemergence sugar beet", "assay_type": "in vivo, Beta vulgaris", "outline": "as §1"}, "velvetleaf": {"tested_on": "velvetleaf", "assay": "Test B pre/postemergence velvetleaf", "assay_type": "in vivo, Abutilon theophrasti", "outline": "as §1"}, "wheat": {"tested_on": "wheat", "assay": "Test B pre/postemergence wheat", "assay_type": "in vivo, Triticum aestivum", "outline": "as §1"}, "wild oat": {"tested_on": "wild oat", "assay": "Test B pre/postemergence wild oat", "assay_type": "in vivo, Avena fatua", "outline": "as §1"}, "purple nutsedge": {"tested_on": "purple nutsedge", "assay": "Test B pre/postemergence purple nutsedge", "assay_type": "in vivo, Cyperus rotundus", "outline": "as §1"}, "[1]": {"conditions": "Postemergence, Rate 125 g/ha, scale 0 to 10, 0 is no effect, 10 is complete control"}, "[2]": {"conditions": "Postemergence, Rate 500 g/ha, scale 0 to 10, 0 is no effect, 10 is complete control"}, "[3]": {"conditions": "Preemergence, Rate 62 g/ha, scale of 0 to 10 where 0 is no effect and 10 is complete control"}, "[4]": {"conditions": "Preemergence, Rate 125 g/ha, scale 0 to 10, 0 is no effect, 10 is complete control"}, "[5]": {"conditions": "Preemergence, Rate 250 g/ha, scale 0 to 10, 0 is no effect, 10 is complete control"}, "[6]": {"conditions": "Preemergence, Rate 500 g/ha, scale 0 to 10, 0 is no effect, 10 is complete control"}, "[7]": {"conditions": "Postemergence, Rate 62 g/ha, scale of 0 to 10, 0 is no effect, 10 is complete control"}, "[8]": {"conditions": "Postemergence, Rate 250 g/ha, scale 0 to 10"}, "[9]": {"conditions": "Preemergence, Rate 500 g/ha, scale of 0 to 10 where 0 is no effect and 10 is complete control"}}, "data": [{"smiles": "CCOCn1c(=O)on(C(=O)N(c2ccc(F)cc2F)C(C)C)c1=O", "note": "[Compound 504]", "values": [{"measurement": "Bedstraw plant response rating", "setting": "bedstraw; [1]", "value": 8}, {"measurement": "Plant response rating, Bedstraw", "setting": "bedstraw; [2]", "value": 9}, {"measurement": "Plant response rating, Bedstraw", "setting": "bedstraw; [3]", "value": 2}, {"measurement": "Bedstraw plant response rating", "setting": "bedstraw; [4]", "value": 5}, {"measurement": "Bedstraw plant response rating", "setting": "bedstraw; [5]", "value": 8}, {"measurement": "Bedstraw plant response rating", "setting": "bedstraw; [6]", "value": 8}, {"measurement": "Blackgrass plant response rating", "setting": "blackgrass; [7]", "value": 6}, {"measurement": "Blackgrass plant response rating", "setting": "blackgrass; [1]", "value": 7}, {"measurement": "Blackgrass plant response rating", "setting": "blackgrass; [8]", "value": 7}, {"measurement": "Plant response rating, Blackgrass", "setting": "blackgrass; [2]", "value": 8}, {"measurement": "Plant response rating, Blackgrass", "setting": "blackgrass; [3]", "value": 6}, {"measurement": "Blackgrass plant response rating", "setting": "blackgrass; [4]", "value": 8}, {"measurement": "Blackgrass plant response rating", "setting": "blackgrass; [5]", "value": 10}, {"measurement": "Blackgrass plant response rating", "setting": "blackgrass; [9]", "value": 10}, {"measurement": "B. signalgrass plant response rating", "setting": "surinam grass; [7]", "value": 0}, {"measurement": "B. signalgrass plant response rating", "setting": "surinam grass; [1]", "value": 3}, {"measurement": "B. signalgrass plant response rating", "setting": "surinam grass; Postemergence, Rate 250 g/ha, scale 0 to 10, 0 no effect, 10 complete control", "value": 8}, {"measurement": "Plant response rating, B. signalgrass", "setting": "surinam grass; [2]", "value": 9}, {"measurement": "Plant response rating, B. signalgrass", "setting": "surinam grass; [3]", "value": 7}, {"measurement": "B. signalgrass plant response rating", "setting": "surinam grass; [4]", "value": 10}, {"measurement": "B. signalgrass plant response rating", "setting": "surinam grass; [5]", "value": 10}, {"measurement": "B. signalgrass plant response rating", "setting": "surinam grass; [6]", "value": 10}, {"measurement": "Cocklebur plant response rating", "setting": "cocklebur; [7]", "value": 2}, {"measurement": "Cocklebur plant response rating", "setting": "cocklebur; [1]", "value": 3}, {"measurement": "Cocklebur plant response rating", "setting": "cocklebur; [8]", "value": 6}, {"measurement": "Plant response rating, Cocklebur", "setting": "cocklebur; [2]", "value": 6}, {"measurement": "Plant response rating, Cocklebur", "setting": "cocklebur; [3]", "value": 0}, {"measurement": "Cocklebur plant response rating", "setting": "cocklebur; [4]", "value": 0}, {"measurement": "Cocklebur plant response rating", "setting": "cocklebur; [5]", "value": 0}, {"measurement": "Cocklebur plant response rating", "setting": "cocklebur; [9]", "value": 0}, {"measurement": "Corn plant response rating", "setting": "corn; [7]", "value": 0}, {"measurement": "Corn plant response rating", "setting": "corn; [1]", "value": 2}, {"measurement": "Corn plant response rating", "setting": "corn; [8]", "value": 2}, {"measurement": "Plant response rating, Corn", "setting": "corn; [2]", "value": 6}, {"measurement": "Plant response rating, Corn", "setting": "corn; [3]", "value": 0}, {"measurement": "Corn plant response rating", "setting": "corn; [4]", "value": 5}, {"measurement": "Corn plant response rating", "setting": "corn; [9]", "value": 6}, {"measurement": "Crabgrass plant response rating", "setting": "crabgrass; [7]", "value": 8}, {"measurement": "Crabgrass plant response rating", "setting": "crabgrass; [1]", "value": 8}, {"measurement": "Crabgrass plant response rating", "setting": "crabgrass; [8]", "value": 9}, {"measurement": "Plant response rating, Crabgrass", "setting": "crabgrass; [2]", "value": 10}, {"measurement": "Plant response rating, Crabgrass", "setting": "crabgrass; [3]", "value": 6}, {"measurement": "Crabgrass plant response rating", "setting": "crabgrass; [4]", "value": 6}, {"measurement": "Crabgrass plant response rating", "setting": "crabgrass; [9]", "value": 10}, {"measurement": "Giant foxtail plant response rating", "setting": "giant foxtail; [7]", "value": 8}, {"measurement": "Giant foxtail plant response rating", "setting": "giant foxtail; [1]", "value": 9}, {"measurement": "Plant response rating, Giant foxtail", "setting": "giant foxtail; [2]", "value": 9}, {"measurement": "Plant response rating, Giant foxtail", "setting": "giant foxtail; [3]", "value": 9}, {"measurement": "Giant foxtail plant response rating", "setting": "giant foxtail; [4]", "value": 9}, {"measurement": "Giant foxtail plant response rating", "setting": "giant foxtail; [9]", "value": 10}, {"measurement": "Morningglory plant response rating", "setting": "morningglory; [7]", "value": 4}, {"measurement": "Morningglory plant response rating", "setting": "morningglory; [1]", "value": 4}, {"measurement": "Plant response rating, Morningglory", "setting": "morningglory; [2]", "value": 6}, {"measurement": "Plant response rating, Morningglory", "setting": "morningglory; [3]", "value": 0}, {"measurement": "Morningglory plant response rating", "setting": "morningglory; [4]", "value": 0}, {"measurement": "Morningglory plant response rating", "setting": "morningglory; [9]", "value": 4}, {"measurement": "Redroot pigweed plant response rating", "setting": "pigweed; [7]", "value": 7}, {"measurement": "Redroot pigweed plant response rating", "setting": "pigweed; [1]", "value": 8}, {"measurement": "Plant response rating, Redroot pigweed", "setting": "pigweed; [2]", "value": 9}, {"measurement": "Plant response rating, Redroot pigweed", "setting": "pigweed; [3]", "value": 10}, {"measurement": "Redroot pigweed plant response rating", "setting": "pigweed; [4]", "value": 10}, {"measurement": "Redroot pigweed plant response rating", "setting": "pigweed; [9]", "value": 10}, {"measurement": "Rape plant response rating", "setting": "rape; [7]", "value": 1}, {"measurement": "Rape plant response rating", "setting": "rape; [1]", "value": 4}, {"measurement": "Plant response rating, Rape", "setting": "rape; [2]", "value": 8}, {"measurement": "Plant response rating, Rape", "setting": "rape; [3]", "value": 5}, {"measurement": "Rape plant response rating", "setting": "rape; [4]", "value": 10}, {"measurement": "Rape plant response rating", "setting": "rape; [9]", "value": 10}, {"measurement": "Soybean plant response rating", "setting": "soybean; [7]", "value": 3}, {"measurement": "Soybean plant response rating", "setting": "soybean; [1]", "value": 6}, {"measurement": "Plant response rating, Soybean", "setting": "soybean; [2]", "value": 7}, {"measurement": "Plant response rating, Soybean", "setting": "soybean; [3]", "value": 0}, {"measurement": "Soybean plant response rating", "setting": "soybean; [4]", "value": 0}, {"measurement": "Soybean plant response rating", "setting": "soybean; [9]", "value": 5}, {"measurement": "Sugarbeets plant response rating", "setting": "sugar beet; [7]", "value": 5}, {"measurement": "Sugarbeets plant response rating", "setting": "sugar beet; [1]", "value": 7}, {"measurement": "Plant response rating, Sugarbeets", "setting": "sugar beet; [2]", "value": 9}, {"measurement": "Plant response rating, Sugarbeets", "setting": "sugar beet; [3]", "value": 4}, {"measurement": "Sugarbeets plant response rating", "setting": "sugar beet; [4]", "value": 6}, {"measurement": "Sugarbeets plant response rating", "setting": "sugar beet; [9]", "value": 9}, {"measurement": "Velvetleaf plant response rating", "setting": "velvetleaf; [7]", "value": 1}, {"measurement": "Velvetleaf plant response rating", "setting": "velvetleaf; [1]", "value": 4}, {"measurement": "Plant response rating, Velvetleaf", "setting": "velvetleaf; [2]", "value": 7}, {"measurement": "Plant response rating, Velvetleaf", "setting": "velvetleaf; [3]", "value": 1}, {"measurement": "Velvetleaf plant response rating", "setting": "velvetleaf; [4]", "value": 5}, {"measurement": "Velvetleaf plant response rating", "setting": "velvetleaf; [9]", "value": 10}, {"measurement": "Wheat plant response rating", "setting": "wheat; [7]", "value": 0}, {"measurement": "Wheat plant response rating", "setting": "wheat; [1]", "value": 3}, {"measurement": "Plant response rating, Wheat", "setting": "wheat; [2]", "value": 6}, {"measurement": "Plant response rating, Wheat", "setting": "wheat; [3]", "value": 2}, {"measurement": "Wheat plant response rating", "setting": "wheat; [4]", "value": 6}, {"measurement": "Wheat plant response rating", "setting": "wheat; [9]", "value": 8}, {"measurement": "Wild oats plant response rating", "setting": "wild oat; [7]", "value": 0}, {"measurement": "Wild oats plant response rating", "setting": "wild oat; [1]", "value": 6}, {"measurement": "Plant response rating, Wild oats", "setting": "wild oat; [2]", "value": 7}, {"measurement": "Plant response rating, Wild oats", "setting": "wild oat; [3]", "value": 6}, {"measurement": "Wild oats plant response rating", "setting": "wild oat; [4]", "value": 8}, {"measurement": "Wild oats plant response rating", "setting": "wild oat; [9]", "value": 10}, {"measurement": "Nutsedge plant response rating", "setting": "purple nutsedge; [7]", "value": 0}, {"measurement": "Nutsedge plant response rating", "setting": "purple nutsedge; [1]", "value": 0}, {"measurement": "Plant response rating, Nutsedge", "setting": "purple nutsedge; [2]", "value": 3}, {"measurement": "Plant response rating, Nutsedge", "setting": "purple nutsedge; [3]", "value": 2}, {"measurement": "Nutsedge plant response rating", "setting": "purple nutsedge; [4]", "value": 0}, {"measurement": "Nutsedge plant response rating", "setting": "purple nutsedge; [9]", "value": 8}]}]}
